Earlier results as cited in PMC9851200, “Multiparameter phenotypic screening for endogenous TFEB and TFE3 translocation identifies novel chemical series modulating lysosome function” (Autophagy, 2022).

Experiments:
Design in all cases: method as in original PKIS2 published data
[1] = molecular target: kinases (KINOMEscan panel) (Homo sapiens, UniProt P12931); conditions: SRC; Published KINOMEscan; ref original PKIS2 published data; cited from earlier work
[2] = molecular target: kinases (KINOMEscan panel) (Homo sapiens, UniProt P21802); conditions: kinase FGFR2; Published KINOMEscan; ref original PKIS2 published data; cited from earlier work
[3] = molecular target: kinases (KINOMEscan panel) (Homo sapiens, UniProt Q00536); conditions: kinase CDK16; Published KINOMEscan; ref original PKIS2 published data; cited from earlier work
[4] = molecular target: kinases (KINOMEscan panel) (Homo sapiens, UniProt Q13464); conditions: ROCK1; Published KINOMEscan; ref original PKIS2 published data; cited from earlier work
[5] = molecular target: T1, kinases (KINOMEscan panel) (Homo sapiens, UniProt Q13546); conditions: kinase RIPK1; Published KINOMEscan; ref original PKIS2 published data; cited from earlier work
T1 sequence (Q13546 1-671): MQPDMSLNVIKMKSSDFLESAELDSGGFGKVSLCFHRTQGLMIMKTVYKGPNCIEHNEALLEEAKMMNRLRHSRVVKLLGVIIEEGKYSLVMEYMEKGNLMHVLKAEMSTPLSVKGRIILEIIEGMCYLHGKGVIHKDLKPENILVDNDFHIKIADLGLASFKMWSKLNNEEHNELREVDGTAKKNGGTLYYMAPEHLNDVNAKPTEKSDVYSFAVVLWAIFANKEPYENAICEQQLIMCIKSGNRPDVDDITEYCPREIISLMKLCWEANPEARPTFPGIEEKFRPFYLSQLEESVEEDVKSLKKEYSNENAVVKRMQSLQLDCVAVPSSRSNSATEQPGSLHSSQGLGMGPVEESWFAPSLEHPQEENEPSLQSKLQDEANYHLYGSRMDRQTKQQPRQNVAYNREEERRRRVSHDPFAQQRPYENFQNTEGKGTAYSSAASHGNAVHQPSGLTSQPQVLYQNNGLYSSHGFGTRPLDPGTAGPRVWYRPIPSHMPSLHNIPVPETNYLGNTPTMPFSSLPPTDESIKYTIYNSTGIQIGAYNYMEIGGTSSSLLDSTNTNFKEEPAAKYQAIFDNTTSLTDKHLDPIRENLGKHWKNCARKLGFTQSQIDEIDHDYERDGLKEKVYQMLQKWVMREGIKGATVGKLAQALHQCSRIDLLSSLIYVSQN

[6] = molecular target: T2, kinases (KINOMEscan panel) (Homo sapiens, UniProt Q16566); conditions: CAMK4; Published KINOMEscan; ref original PKIS2 published data; cited from earlier work
T2 sequence (Q16566 1-473): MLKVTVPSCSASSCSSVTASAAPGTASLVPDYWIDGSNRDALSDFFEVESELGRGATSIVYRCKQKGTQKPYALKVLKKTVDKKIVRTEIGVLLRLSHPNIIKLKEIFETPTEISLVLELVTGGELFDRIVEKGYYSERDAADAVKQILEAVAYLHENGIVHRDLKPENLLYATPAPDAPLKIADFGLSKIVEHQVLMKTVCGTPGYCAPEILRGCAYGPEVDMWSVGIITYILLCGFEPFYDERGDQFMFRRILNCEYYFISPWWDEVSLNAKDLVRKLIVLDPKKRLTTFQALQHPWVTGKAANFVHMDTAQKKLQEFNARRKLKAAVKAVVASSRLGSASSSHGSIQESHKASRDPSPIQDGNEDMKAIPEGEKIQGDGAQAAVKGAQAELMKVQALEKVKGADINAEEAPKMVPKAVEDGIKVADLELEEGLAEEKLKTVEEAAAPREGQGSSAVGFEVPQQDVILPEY

[7] = molecular target: kinases (KINOMEscan panel) (Homo sapiens, UniProt Q5VT25); conditions: cited from earlier work
[8] = molecular target: T3, kinases (KINOMEscan panel) (Homo sapiens, UniProt Q8TD19); conditions: NEK9; Published KINOMEscan; ref original PKIS2 published data; cited from earlier work
T3 sequence (Q8TD19 1-979): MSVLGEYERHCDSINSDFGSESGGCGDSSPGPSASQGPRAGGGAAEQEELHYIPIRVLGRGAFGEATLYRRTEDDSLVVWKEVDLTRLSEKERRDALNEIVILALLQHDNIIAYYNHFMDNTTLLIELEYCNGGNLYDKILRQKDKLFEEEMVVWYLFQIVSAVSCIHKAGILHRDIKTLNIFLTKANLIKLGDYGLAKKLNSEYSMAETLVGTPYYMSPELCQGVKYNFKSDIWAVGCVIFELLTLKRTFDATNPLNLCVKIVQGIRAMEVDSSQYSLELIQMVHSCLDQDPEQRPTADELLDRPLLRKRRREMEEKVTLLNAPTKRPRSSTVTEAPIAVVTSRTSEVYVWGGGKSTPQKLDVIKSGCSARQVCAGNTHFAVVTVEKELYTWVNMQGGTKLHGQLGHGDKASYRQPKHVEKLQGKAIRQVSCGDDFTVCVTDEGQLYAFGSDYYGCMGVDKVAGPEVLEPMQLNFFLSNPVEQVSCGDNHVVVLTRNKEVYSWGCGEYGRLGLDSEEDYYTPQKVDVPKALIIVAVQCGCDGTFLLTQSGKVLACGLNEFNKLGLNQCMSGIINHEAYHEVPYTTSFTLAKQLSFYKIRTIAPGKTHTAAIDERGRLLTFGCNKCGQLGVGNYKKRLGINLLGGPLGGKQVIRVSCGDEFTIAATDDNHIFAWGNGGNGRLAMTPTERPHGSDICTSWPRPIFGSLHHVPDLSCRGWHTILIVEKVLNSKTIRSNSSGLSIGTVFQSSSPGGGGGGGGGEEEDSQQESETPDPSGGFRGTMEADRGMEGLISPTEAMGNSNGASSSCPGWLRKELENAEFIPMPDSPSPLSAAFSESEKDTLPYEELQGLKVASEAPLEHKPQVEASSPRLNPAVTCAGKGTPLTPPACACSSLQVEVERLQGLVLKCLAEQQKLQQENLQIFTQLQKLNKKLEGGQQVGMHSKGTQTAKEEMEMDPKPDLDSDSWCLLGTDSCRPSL

[9] = molecular target: kinases (KINOMEscan panel) (Homo sapiens, UniProt Q9Y463); conditions: kinase DYRK1B; Published KINOMEscan; ref original PKIS2 published data; cited from earlier work
Sequence of kinases (KINOMEscan panel) (Homo sapiens, UniProt Q9Y463) (Q9Y463 whole entry): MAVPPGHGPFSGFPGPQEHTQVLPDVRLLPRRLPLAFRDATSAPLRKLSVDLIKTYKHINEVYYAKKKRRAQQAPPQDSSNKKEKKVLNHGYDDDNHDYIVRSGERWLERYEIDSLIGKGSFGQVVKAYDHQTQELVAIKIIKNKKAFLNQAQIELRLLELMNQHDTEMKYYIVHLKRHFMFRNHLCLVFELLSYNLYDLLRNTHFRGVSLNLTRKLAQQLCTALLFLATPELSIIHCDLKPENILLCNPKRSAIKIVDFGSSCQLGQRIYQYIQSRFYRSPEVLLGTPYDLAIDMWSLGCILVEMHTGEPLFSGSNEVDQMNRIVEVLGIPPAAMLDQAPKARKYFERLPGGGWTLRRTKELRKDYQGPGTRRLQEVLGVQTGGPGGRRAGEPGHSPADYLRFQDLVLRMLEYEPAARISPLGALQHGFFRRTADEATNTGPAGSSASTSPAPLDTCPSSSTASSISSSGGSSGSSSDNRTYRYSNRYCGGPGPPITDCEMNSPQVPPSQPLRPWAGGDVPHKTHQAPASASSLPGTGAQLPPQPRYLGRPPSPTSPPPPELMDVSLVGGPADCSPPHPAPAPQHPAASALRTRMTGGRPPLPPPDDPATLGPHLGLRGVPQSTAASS

Sequence of kinases (KINOMEscan panel) (Homo sapiens, UniProt Q5VT25) (Q5VT25 whole entry): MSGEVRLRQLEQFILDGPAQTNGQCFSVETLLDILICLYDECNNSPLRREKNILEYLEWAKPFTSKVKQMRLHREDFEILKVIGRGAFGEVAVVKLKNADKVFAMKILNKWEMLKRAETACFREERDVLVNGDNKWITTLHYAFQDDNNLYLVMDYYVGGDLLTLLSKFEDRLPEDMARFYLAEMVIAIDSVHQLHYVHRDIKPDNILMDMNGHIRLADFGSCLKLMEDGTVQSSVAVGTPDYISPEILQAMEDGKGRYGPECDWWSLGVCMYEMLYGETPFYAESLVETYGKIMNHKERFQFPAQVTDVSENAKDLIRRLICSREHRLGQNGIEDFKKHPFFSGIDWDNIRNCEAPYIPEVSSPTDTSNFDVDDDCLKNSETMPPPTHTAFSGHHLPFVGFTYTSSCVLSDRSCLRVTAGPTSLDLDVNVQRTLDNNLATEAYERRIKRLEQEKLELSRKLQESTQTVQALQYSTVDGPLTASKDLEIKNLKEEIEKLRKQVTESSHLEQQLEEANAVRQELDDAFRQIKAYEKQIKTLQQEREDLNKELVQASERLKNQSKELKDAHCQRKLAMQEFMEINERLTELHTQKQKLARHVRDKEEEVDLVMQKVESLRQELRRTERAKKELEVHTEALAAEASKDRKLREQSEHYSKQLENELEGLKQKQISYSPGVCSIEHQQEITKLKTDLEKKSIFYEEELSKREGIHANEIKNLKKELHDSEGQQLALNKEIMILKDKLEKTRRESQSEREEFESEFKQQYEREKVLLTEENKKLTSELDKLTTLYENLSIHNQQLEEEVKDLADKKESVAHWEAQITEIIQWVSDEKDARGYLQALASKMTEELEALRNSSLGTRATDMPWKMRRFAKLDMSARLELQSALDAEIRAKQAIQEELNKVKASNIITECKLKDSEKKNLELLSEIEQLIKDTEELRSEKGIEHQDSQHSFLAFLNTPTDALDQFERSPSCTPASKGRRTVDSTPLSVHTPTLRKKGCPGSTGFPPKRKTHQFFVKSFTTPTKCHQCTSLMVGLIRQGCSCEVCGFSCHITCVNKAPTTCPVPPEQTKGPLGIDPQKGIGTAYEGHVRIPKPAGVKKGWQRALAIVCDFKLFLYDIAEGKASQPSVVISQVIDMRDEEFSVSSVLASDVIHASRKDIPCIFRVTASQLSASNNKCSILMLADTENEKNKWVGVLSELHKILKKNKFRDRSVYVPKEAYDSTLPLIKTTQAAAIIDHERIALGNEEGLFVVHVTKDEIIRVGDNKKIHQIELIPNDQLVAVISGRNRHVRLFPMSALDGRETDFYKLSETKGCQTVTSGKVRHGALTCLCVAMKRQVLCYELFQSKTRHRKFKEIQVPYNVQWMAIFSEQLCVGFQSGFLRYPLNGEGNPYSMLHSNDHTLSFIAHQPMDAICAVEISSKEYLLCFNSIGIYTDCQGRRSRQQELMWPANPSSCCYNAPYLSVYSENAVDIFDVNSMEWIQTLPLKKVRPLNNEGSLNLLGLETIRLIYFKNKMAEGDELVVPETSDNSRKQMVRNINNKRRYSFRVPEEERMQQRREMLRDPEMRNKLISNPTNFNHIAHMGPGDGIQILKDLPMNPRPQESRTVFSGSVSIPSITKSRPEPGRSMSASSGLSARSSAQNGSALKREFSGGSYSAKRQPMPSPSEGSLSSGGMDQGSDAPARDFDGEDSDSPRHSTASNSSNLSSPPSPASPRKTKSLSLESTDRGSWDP
Sequence of kinases (KINOMEscan panel) (Homo sapiens, UniProt Q13464) (Q13464 whole entry): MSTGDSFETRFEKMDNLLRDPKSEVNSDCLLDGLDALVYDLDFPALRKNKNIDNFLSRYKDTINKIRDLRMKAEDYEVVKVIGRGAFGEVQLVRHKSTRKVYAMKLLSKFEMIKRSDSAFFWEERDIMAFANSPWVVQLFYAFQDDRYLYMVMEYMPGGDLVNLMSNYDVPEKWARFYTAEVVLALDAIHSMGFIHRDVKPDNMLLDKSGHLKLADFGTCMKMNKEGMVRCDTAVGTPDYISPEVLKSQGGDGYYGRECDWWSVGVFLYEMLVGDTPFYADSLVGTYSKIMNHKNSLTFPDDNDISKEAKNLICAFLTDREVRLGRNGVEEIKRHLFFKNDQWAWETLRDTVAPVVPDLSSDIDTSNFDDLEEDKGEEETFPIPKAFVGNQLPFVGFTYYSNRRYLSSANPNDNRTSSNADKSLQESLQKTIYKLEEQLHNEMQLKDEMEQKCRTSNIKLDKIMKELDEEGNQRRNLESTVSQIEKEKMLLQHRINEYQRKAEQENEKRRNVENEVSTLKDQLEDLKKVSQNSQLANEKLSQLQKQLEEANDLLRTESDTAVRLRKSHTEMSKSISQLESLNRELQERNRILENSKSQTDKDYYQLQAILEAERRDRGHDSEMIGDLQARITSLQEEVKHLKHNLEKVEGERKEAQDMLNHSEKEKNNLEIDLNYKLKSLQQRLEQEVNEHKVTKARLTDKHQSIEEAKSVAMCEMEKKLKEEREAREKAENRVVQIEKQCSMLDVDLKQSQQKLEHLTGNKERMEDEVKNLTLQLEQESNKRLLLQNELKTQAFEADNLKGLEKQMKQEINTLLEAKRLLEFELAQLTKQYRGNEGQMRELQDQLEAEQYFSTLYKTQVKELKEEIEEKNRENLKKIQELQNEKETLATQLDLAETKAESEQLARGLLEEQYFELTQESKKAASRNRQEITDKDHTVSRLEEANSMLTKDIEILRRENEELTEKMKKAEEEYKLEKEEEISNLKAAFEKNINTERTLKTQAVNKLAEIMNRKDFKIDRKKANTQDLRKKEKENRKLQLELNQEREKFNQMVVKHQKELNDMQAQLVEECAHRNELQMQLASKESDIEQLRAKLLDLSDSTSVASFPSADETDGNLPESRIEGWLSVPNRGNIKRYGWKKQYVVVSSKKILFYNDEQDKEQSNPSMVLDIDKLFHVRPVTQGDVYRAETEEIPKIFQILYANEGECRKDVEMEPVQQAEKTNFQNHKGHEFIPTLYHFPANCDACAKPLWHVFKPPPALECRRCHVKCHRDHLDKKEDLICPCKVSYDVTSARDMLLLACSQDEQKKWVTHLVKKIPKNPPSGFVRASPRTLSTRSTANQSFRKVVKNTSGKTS
Sequence of kinases (KINOMEscan panel) (Homo sapiens, UniProt P21802) (P21802 22-821): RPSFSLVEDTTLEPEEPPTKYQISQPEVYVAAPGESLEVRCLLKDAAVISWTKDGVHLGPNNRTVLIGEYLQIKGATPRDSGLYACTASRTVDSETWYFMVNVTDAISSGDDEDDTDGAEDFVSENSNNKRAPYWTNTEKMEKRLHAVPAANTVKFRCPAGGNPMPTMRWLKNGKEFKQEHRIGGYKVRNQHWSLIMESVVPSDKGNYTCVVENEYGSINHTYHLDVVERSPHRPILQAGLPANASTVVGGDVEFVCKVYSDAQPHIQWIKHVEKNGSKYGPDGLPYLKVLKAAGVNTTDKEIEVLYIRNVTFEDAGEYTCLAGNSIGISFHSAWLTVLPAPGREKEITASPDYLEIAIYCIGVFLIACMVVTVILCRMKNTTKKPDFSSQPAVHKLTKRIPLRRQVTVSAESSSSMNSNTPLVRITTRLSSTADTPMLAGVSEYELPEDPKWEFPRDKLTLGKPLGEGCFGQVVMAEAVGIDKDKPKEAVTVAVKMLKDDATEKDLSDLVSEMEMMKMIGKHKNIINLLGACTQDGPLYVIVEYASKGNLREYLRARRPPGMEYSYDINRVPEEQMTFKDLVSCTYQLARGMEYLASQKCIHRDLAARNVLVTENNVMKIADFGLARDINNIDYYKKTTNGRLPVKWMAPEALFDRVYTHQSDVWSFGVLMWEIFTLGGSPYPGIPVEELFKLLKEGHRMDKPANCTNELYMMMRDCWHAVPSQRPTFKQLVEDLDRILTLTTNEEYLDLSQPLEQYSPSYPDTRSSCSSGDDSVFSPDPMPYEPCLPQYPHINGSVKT
Sequence of kinases (KINOMEscan panel) (Homo sapiens, UniProt P12931) (P12931 whole entry): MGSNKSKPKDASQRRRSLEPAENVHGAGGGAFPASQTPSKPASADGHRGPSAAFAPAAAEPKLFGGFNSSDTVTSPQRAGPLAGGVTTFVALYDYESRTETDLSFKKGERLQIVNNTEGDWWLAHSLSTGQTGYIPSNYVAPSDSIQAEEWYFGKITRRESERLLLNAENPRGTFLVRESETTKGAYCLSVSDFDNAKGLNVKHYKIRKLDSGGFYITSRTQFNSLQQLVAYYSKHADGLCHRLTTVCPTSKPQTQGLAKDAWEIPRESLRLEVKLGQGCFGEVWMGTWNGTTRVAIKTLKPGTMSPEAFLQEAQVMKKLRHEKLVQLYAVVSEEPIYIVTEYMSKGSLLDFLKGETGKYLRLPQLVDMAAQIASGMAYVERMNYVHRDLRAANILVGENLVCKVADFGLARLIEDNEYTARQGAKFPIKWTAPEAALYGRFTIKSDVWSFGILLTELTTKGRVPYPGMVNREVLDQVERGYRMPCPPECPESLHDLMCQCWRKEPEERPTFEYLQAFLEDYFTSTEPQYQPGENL

## Cc1cccc(-c2nc(Nc3ccncc3)c3ccccc3n2)n1 [NK215]
[1]
  KINOMEscan SRC: 20
[2]
  KINOMEscan FGFR2: 7
[3]
  KINOMEscan CDK16: 0
[4]
  KINOMEscan ROCK1: 0
[5]
  KINOMEscan RIPK1: 4
[6]
  KINOMEscan CAMK4: 47
[7]
  KINOMEscan CDC42BPA/MRCKA: 47
[8]
  KINOMEscan NEK9: 0
[9]
  KINOMEscan DYRK1B: 27
